How the values were obtained:
[1] = system: diabetic rats (fatty Zucker rats); conditions: cited from earlier work
[2] = system: Male Wistar rats; assay: Oral glucose tolerance test: influence of D-psicose on the reaction of increasing blood glucose; type: in vivo, rat; conditions: for blood glucose level compared with single administration of D-glucose: minutes after administration; for increase of the blood glucose level: oral D-glucose 2 g/kg with test sugar 0.32 g/kg (16% of D-glucose) simultaneously
Procedure: Male Wistar rats of age 6 months were fed ad libitum under a condition that the bright cycle was at a temperature of 25° C. and a humidity of 50 to 70% from 8:00 am to 20:00 pm, for preliminary feeding for one week. On the day before the experiment, the rats were fasted for 12 hours and subsequently orally given D-glucose at 2 g/kg (in the form of 50% glucose solution) using a probe. Blood was drawn before the dosing and 30, 60, 90, 120, 150 and 180 minutes after the dosing. Blood glucose level was measured with a blood glucose meter. Alternatively, D-fructose or D-psicose at 0.32 g/kg (at 16% of D-glucose) was simultaneously given with D-glucose at 2 g/kg. In the same manner, blood glucose level was measured. Based on the resulting blood glucose levels, the area under the curve of blood glucose level (ΔAUC) was calculated.

[3] = system: maltase; assay: Maltose administration experiment (inhibition of maltase in vivo), plasma glucose; parameters: species or system rat; conditions: rats; for Plasma glucose level, 0 min: before maltose 2 g/kg + test sugar 200 mg/kg; for Plasma glucose level, 30 min / Plasma glucose level, 60 min / Plasma glucose level, 90 min / Plasma glucose level, 120 min / ΔAUC of plasma glucose level: maltose 2 g/kg + test sugar 200 mg/kg
Procedure: (§1) Thirty-six male Wistar rats of age 6 months are divided into 6 groups. The following sugars were given to the rats in the individual groups after 12-hour fasting. Before the administration and 30, 60, 90, 120 and 180 minutes after the administration, blood is drawn from the tail vein, to assay plasma glucose and insulin concentration.
2. Maltose 2 g/kg+L-arabinose 200 mg/kg (MA)
3. Maltose 2 g/kg+D-xylose 200 mg/kg (MX)
4. Maltose 2 g/kg+D-fructose 200 mg/kg (MF)
5. Maltose 2 g/kg+D-psicose 200 mg/kg (MP)
6. Maltose 2 g/kg+(fructose 150 mg/kg+psicose 50 mg/kg) (MFP)
(§2) Before the administration and 30, 60, 90, 120 and 180 minutes after the administration, plasma glucose level was assayed. The plasma glucose level 180 minutes later was used to calculate the area under the curve of plasma glucose level (ΔAUC).

[4] = molecular target: T1, sucrase (Rattus norvegicus, UniProt P23739); assay: Sucrose administration experiment (inhibition of sucrase in vivo), plasma glucose; conditions: rats; for Plasma glucose level, 0 min: before sucrose 2 g/kg + test sugar 200 mg/kg; for Plasma glucose level, 30 min / Plasma glucose level, 60 min / Plasma glucose level, 90 min / Plasma glucose level, 120 min / ΔAUC of plasma glucose level: sucrose 2 g/kg + test sugar 200 mg/kg
T1 construct: from tissue; host or cells: small intestine of live male Wistar rats (oral sugar load)
Procedure: Sucrose 2 g/kg+L-arabinose 200 mg/kg (SA)
Sucrose 2 g/kg+D-xylose 200 mg/kg (SX)
Sucrose 2 g/kg+D-fructose 200 mg/kg (SF)
Sucrose 2 g/kg+D-psicose 200 mg/kg (SP)
Sucrose 2 g/kg+(fructose 150 mg/kg+psicose 50 mg/kg) (SFP)

[5] = system: Male Wistar rats; assay: Soluble starch administration experiment, plasma glucose; type: in vivo, rat; conditions: for Plasma glucose level, 0 min: before soluble starch 2 g/kg + test sugar 200 mg/kg; for Plasma glucose level, 30 min / Plasma glucose level, 60 min / Plasma glucose level, 90 min / Plasma glucose level, 120 min / ΔAUC of plasma glucose level: soluble starch 2 g/kg + test sugar 200 mg/kg
Procedure: as §1
1. Soluble starch 2 g/kg (SS)
2. Soluble starch 2 g/kg+L-arabinose 200 mg/kg (SSA)
3. Soluble starch 2 g/kg+D-xylose 200 mg/kg (SSX)
4. Soluble starch 2 g/kg+D-fructose 200 mg/kg (SSF)
5. Soluble starch 2 g/kg+D-psicose 200 mg/kg (SSP)
6. Soluble starch 2 g/kg+(fructose 150 mg/kg+psicose 50 mg/kg) (SSFP)
as §2

[6] = system: Male Wistar rats; assay: Intra-day variation of plasma glucose concentration in rats fed 5% sugar diets; type: in vivo, rat; conditions: 5% in diet, fed twice daily for 8 weeks
Excerpt: Forty male Wistar rats of age 3 weeks were preliminarily fed for one week and then divided into 4 groups. Then, a control diet (AIN-76A), and the control diet with addition of 5% D-fructose, the control diet with addition of 5% D-psicose, and the control diet with addition of 5% psico-rare sugar were fed to the rats, twice daily (at 8 to 9 am and at 20 to 21 pm) ad libitum for 8 weeks. At 2 am, 6 am, 10 am, 14 pm, 18 pm and 22 pm on the week 7 or 8 of the feeding, blood was drawn from the tail veins of the rats. Plasma was separated from the blood to assay glucose concentration.

[7] = system: α-glucosidase; conditions: in vitro; cited from earlier work
[8] = system: liver; conditions: D-psicose added up to 20% of the weight of the feeds; cited from earlier work
[9] = system: Male Wistar rats; assay: Influence of D-psicose diet on liver weight and composition (16-week feeding); type: in vivo, rat; conditions: 16 weeks
Procedure: Twenty-four male Wistar rats of age 3 weeks were fed ad libitum under a condition that the bright cycle was at a temperature of 25° C. and a humidity of 50 to 70% from 8:00 am to 20:00 pm, for preliminary feeding for one week. Subsequently, the rats were divided into 4 groups, each group consisting of 6 rats. The groups were defined a high fat/D-psicose diet (HF-P) group; a high fat/cellulose diet (HF-C) group; a low fat/D-psicose diet (LF-P) group; and a low fat/cellulose diet (LF-C) group. 20% beef fat and 5% soybean oil were used to prepare the high fat diets. 5% soybean oil was used to prepare the low fat diets. 5% D-psicose or cellulose was added to the individual diets. These rats were fed these experimental diets and water ad libitum for 16 weeks. On the last day of the experiment, the rats were decapitated and sacrificed to death, from which liver, flounder muscle and intraperitoneal fat tissues were resected. Glycogen, neutral fat and protein were assayed in the liver, while glycogen content was assayed in the flounder muscle. [table]

[10] = system: liver; conditions: in vivo; cited from earlier work
[11] = system: pancreatic island cells; conditions: in vitro; cited from earlier work
[12] = D-glucose 2 g/kg + 0.32 g/kg test sugar

T1 sequence (P23739 whole entry): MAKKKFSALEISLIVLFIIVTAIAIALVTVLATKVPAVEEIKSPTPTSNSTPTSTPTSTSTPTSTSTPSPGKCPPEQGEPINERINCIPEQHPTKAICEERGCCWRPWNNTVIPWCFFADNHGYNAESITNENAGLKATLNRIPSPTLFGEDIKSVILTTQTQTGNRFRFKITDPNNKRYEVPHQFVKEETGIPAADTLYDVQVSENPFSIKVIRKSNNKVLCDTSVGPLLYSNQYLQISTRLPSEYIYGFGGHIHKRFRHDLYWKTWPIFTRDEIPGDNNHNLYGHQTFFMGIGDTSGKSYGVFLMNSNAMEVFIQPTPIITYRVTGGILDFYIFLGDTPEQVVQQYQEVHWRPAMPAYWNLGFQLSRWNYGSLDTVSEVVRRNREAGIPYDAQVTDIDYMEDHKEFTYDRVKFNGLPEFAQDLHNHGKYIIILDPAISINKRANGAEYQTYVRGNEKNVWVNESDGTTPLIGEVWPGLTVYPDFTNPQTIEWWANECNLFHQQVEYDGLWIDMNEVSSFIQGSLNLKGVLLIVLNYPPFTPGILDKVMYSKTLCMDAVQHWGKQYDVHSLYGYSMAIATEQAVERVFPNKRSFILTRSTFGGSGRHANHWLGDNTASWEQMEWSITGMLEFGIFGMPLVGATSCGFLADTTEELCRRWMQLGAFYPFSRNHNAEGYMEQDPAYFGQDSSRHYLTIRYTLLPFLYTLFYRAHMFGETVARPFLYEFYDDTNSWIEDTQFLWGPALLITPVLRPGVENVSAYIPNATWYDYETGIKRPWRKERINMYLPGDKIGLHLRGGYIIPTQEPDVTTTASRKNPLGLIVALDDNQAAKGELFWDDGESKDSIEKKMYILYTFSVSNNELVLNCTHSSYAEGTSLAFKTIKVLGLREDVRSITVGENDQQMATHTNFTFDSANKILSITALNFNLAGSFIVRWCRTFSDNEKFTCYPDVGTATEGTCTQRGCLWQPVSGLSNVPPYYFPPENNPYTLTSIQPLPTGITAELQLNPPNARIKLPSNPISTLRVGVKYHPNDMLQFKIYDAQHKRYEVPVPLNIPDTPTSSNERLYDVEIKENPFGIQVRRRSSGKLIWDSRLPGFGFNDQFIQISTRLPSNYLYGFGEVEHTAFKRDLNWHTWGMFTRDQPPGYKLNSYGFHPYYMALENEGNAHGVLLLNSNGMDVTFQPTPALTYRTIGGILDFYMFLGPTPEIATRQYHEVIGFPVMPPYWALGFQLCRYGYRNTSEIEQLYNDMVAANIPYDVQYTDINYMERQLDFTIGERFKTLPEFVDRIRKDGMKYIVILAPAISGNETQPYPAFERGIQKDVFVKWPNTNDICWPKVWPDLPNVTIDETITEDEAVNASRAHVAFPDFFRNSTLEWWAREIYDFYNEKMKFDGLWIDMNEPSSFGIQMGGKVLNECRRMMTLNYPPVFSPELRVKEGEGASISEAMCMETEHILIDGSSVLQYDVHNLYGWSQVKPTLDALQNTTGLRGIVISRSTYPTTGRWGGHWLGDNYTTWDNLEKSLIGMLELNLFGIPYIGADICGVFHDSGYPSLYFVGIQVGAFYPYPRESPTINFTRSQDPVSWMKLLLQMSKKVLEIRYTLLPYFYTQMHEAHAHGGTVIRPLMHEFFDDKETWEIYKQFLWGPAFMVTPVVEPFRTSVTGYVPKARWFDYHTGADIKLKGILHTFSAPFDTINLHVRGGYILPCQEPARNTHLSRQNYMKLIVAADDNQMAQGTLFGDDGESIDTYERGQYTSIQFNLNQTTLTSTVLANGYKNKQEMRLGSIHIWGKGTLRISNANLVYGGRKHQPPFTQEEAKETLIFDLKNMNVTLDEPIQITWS

SMILES: O=C(CO)[C@@H](O)[C@H](O)[C@H](O)CO [D-fructose]
- reaction of increasing blood glucose via D-glucose and maltodextrin [1]: suppressed
- ΔAUC of blood glucose level compared with single D-glucose administration [2, 12]: significantly low
- blood glucose level compared with single administration of D-glucose [2, 12]: significantly low in 90 and 120 minutes
- increase of the blood glucose level [2]: suppressed
- Plasma glucose level, 0 min [3]: 81 ± 10 mg/dL
- Plasma glucose level, 30 min [3]: 139 ± 15 mg/dL
- Plasma glucose level, 60 min [3]: 156 ± 20 ab mg/dl
- Plasma glucose level, 90 min [3]: 152 ± 10 mg/dL
- Plasma glucose level, 120 min [3]: 142 ± 12 mg/dL
- ΔAUC of plasma glucose level [3]: 7031 min^− mg/dl
- Plasma glucose level, 0 min [4]: 97 mg/dL
- Plasma glucose level, 30 min [4]: 134 ± 13 ab mg/dl
- Plasma glucose level, 60 min [4]: 148 ± 12 ab mg/dl
- Plasma glucose level, 90 min [4]: 147 ± 9 ab mg/dl
- Plasma glucose level, 120 min [4]: 141 ± 7 mg/dL
- ΔAUC of plasma glucose level [4]: 4732 min^− mg/dl
- Plasma glucose level, 0 min [5]: 92 ± 4 mg/dL
- Plasma glucose level, 30 min [5]: 130 ± 15 mg/dL
- Plasma glucose level, 60 min [5]: 137 ± 21 mg/dL
- Plasma glucose level, 90 min [5]: 132 ± 13 mg/dL
- Plasma glucose level, 120 min [5]: 130 ± 13 mg/dL
- ΔAUC of plasma glucose level [5]: 4243 min^− mg/dl

SMILES: O=C(CO)[C@H](O)[C@H](O)[C@H](O)CO [D-psicose]
- increment of the area under the curve of plasma glucose concentration (ΔAUC) based on 8 am, compared with control and D-fructose groups [6]: significantly small
- plasma glucose concentration compared with the control group and the D-fructose group ([6]; week 7 or 8): low throughout the day
- increasing rate of blood glucose level compared with D-fructose [2, 12]: likely reduced
- ΔAUC of blood glucose level compared with single D-glucose administration [2, 12]: significantly low
- blood glucose level compared with single administration of D-glucose [2, 12]: significantly low in 60, 90 and 120 minutes
- increase of the blood glucose level [2]: suppressed
- Plasma glucose level, 0 min [3]: 82 ± 8 mg/dL
- action to suppress the increase of blood glucose level ([3]; given simultaneously with maltose (experiment 2)): the effect was low
- Plasma glucose level, 30 min [3]: 125 ± 21 mg/dL
- Plasma glucose level, 60 min [3]: 147 ± 16 b mg/dl
- Plasma glucose level, 90 min [3]: 146 ± 14 mg/dL
- Plasma glucose level, 120 min [3]: 132 ± 13 mg/dL
- ΔAUC of plasma glucose level [3]: 5887 min^− mg/dl
- Plasma glucose level, 0 min [4]: 89 mg/dL
- increase of blood glucose level up to 60 minutes after the administration, compared with sucrose alone ([4]; given simultaneously with sucrose): suppressed
- Plasma glucose level, 30 min [4]: 128 ± 12 ab mg/dl
- Plasma glucose level, 60 min [4]: 139 ± 13 ab mg/dl
- Plasma glucose level, 90 min [4]: 150 ± 20 a mg/dl
- Plasma glucose level, 120 min [4]: 143 ± 28 mg/dL
- ΔAUC of plasma glucose level [4]: 5339 min^− mg/dl
- α-glucosidase inhibition [7]: inhibits
- liver weight per body weight [8]: tended to increase
- liver weight, effect of addition of D-psicose ([9]; 5% in diet, irrespective of the fat content, vs cellulose diet): increased
- hepatic glycogen content, effect of addition of D-psicose ([9]; 5% in diet, vs cellulose diet): tended to increase
- protein content per liver, effect of addition of D-psicose ([9]; 5% in diet, vs cellulose diet): significantly increased
- weight of intraperitoneal fat tissues, effect of addition of D-psicose ([9]; 5% in diet, vs cellulose diet): no influence
- Flounder muscle weight ([9]; high fat diet + 5% D-psicose): 210 ± 8 mg
- Liver weight ([9]; high fat diet + 5% D-psicose): 9.5 ± 0.5 g
- Weight of intraperitoneal fat tissues ([9]; high fat diet + 5% D-psicose): 27 ± 2 g
- Flounder muscle weight ([9]; low fat diet + 5% D-psicose): 209 ± 10 mg
- Liver weight ([9]; low fat diet + 5% D-psicose): 13.2 ± 0.3 g
- Weight of intraperitoneal fat tissues ([9]; low fat diet + 5% D-psicose): 23 ± 1 g
- toxicity causing the deterioration of the hepatic function [10]: no toxicity
- Plasma glucose level, 0 min [5]: 91 ± 10 mg/dL
- action to suppress the increase of blood glucose level ([5]; given simultaneously with soluble starch (experiment 3)): the effect was low
- Plasma glucose level, 30 min [5]: 128 ± 12 mg/dL
- Plasma glucose level, 60 min [5]: 123 ± 21 mg/dL
- Plasma glucose level, 90 min [5]: 121 ± 17 mg/dL
- Plasma glucose level, 120 min [5]: 122 ± 16 mg/dL
- ΔAUC of plasma glucose level [5]: 3344 min^− mg/dl
- insulin secretion from pancreatic island cells [11]: promoted
